The record followed here is US7902186B2, “Substituted 5-phenyl-3,6-dihydro-2-oxo-6H-1,3,4-thiadiazines” (Merck Patent GmbH, priority 2005, dated 2011).

SMILES strings stand for the structures.

For orientation: IC50 means the concentration at which inhibition is half-maximal.

The test has as its target T1, Met kinase (Homo sapiens, UniProt P08581).
T1 construct: 6His (N); purchased Upstate 14-526; host or cells: Sf21 insect cells (S. frugiperda), baculovirus
The test is described as follows: Met kinase inhibition, flashplate method. In kind it is biochemical. The conditions noted are these: 33P-ATP, substrate pAGLT, 3 hrs at room temperature, read-out: IC50 (enzyme). An excerpt: Measurement of Met Kinase Activity
According to the manufacturer's data (Met, active, upstate, catalogue No. 14-526), Met kinase is expressed for the purposes of protein production in insect cells (Sf21; S. frugiperda) and subsequent affinity-chromatographic purification as “N-terminal 6His-tagged” recombinant human protein in a baculovirus expression vector.
Flashplate Method (Met Kinase)
The test plates used are 96-well Flashplate® microtitre plates from Perkin Elmer (Cat. No. SMP200). The components of the kinase reaction described below are pipetted into the assay plate. The Met kinase and the substrate poly Ala-Glu-Lys-Tyr, (pAGLT, 6:2:5:1), are incubated for 3 hrs at room temperature with radioactively labelled ^33P-ATP in the presence and absence of test substances in a total volume of 100 μl. The reaction is terminated using 150 μl of a 60 mM EDTA solution. After incubation for a further 30 min at room temperature, the supernatants are filtered off with suction, and the wells are washed three times with 200 μl of 0.9% NaCl solution each time. The measurement of the bound radioactivity is carried out by means of a scintillation measuring instrument (Topcount NXT, Perkin-Elmer).
The full value used is the inhibitor-free kinase reaction. This should be approximately in the range 6000-9000 cpm. The pharmacological zero value used is staurosporin in a final concentration of 0.1 mM. The inhibitory values (IC50) are determined using the RS1_MTS program.
Kinase Reaction Conditions Per Well:
• 30 μl of assay buffer • 10 μl of substance to be tested in assay buffer with 10% of DMSO • 10 μl of ATP (final concentration 1 μM cold, 0.35 μCi of ^33P-ATP) • 50 μl of Met kinase/substrate mixture in assay buffer; • (10 ng of enzyme/well, 50 ng of pAGLT/well)
Assay Buffer: • 50 mM HEPES • 3 mM magnesium chloride • 3 μM sodium orthovanadate • 3 mM manganese(II) chloride • 1 mM dithiothreitol (DTT) • pH=7.5 (to be set using sodium hydroxide)
Stop Solution: • 60 mM Titriplex III (EDTA)
^33P-ATP: Perkin-Elmer; • Met kinase: Upstate, Cat. No. 14-526, Stock 1 μg/10 μl; spec. activity 954 U/mg; • Poly-Ala-Glu-Lys-Tyr, 6:2:5:1: Sigma Cat. No. P1152

T1 sequence (P08581 974-1390 limits assumed): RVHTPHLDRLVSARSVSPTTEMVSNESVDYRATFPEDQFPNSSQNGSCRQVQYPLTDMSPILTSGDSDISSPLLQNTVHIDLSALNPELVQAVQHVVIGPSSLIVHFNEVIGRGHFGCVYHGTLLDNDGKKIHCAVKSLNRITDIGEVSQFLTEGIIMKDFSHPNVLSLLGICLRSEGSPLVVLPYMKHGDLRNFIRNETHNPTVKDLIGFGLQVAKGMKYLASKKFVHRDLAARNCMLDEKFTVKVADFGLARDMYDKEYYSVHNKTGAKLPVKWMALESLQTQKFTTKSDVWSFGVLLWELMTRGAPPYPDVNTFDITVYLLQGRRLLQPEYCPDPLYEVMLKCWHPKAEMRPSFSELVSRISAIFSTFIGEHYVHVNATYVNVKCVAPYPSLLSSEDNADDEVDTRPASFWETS

With `CN(C)CCCOC(=O)Nc1cccc(CN2N=C(c3ccc(Cl)cc3)CSC2=O)c1` [Compound A6], the IC50 is 0.01 to 1 µM.

Turning to `CCOC(=O)Nc1cccc(CN2N=C(c3ccc(Cl)cc3)CSC2=O)c1` [Compound A7], the IC50 lay within 0.01 to 1 µM.

For the molecule `CN(C)CCCOC(=O)Nc1cccc(CN2N=C(c3cccc(F)c3)CSC2=O)c1` [Compound A11], the IC50 was 0.01 to 1 µM.

As for `CN(C)CCCOC(=O)Nc1cccc(CN2N=C(c3ccccc3F)CSC2=O)c1` [Compound A12], the half-inhibitory concentration (IC50) lay in the range of 0.01 to 1 µM.

`COc1ccccc1C1=NN(Cc2cccc(NC(=O)OCCCN(C)C)c2)C(=O)SC1` [Compound A17]: the IC50 lay in the range of 0.01 to 1 µM.

In the case of `CN(C)CCCOC(=O)Nc1cccc(CN2N=C(c3ccc(C#N)cc3)CSC2=O)c1` [Compound A20], the IC50 was in the range of 0.01 to 1 µM.

With `CC(c1cccc(NC(=O)OCCCN2CCOCC2)c1)N1N=C(c2ccc(F)c(F)c2)CSC1=O` (stereo not shown) [Compound A29], the IC50 fell in the range of 0.01 to 1 µM.

In the case of `CC(c1cccc(NC(=O)OCCCN2CCN(C)CC2)c1)N1N=C(c2ccc(F)c(F)c2)CSC1=O` (stereo not shown) [Compound A30], the 50% inhibitory concentration (IC50) is 0.01 to 1 µM.

For the molecule `CC(c1cccc(NC(=O)OCCCN(C)C)c1)N1N=C(c2ccc(F)c(F)c2)CSC1=O` (stereo not shown) [Compound A31], the IC50 was in the range of 0.01 to 1 µM.

With `CCNCCCOC(=O)Nc1cccc(CN2N=C(c3ccc(C#N)cc3)CSC2=O)c1` [Compound A33], the IC50 was in the range of 0.01 to 1 µM.

On to `CNCC(=O)Nc1cccc(CN2N=C(c3cc(Cl)ccc3O)CSC2=O)c1` [Compound B1, N-{3-[5-(5-chloro-2-hydroxyphenyl)-2-oxo-6H-1,3,4-thiadiazin-3-ylmethyl]phenyl}-2-methylaminoacetamide], for which the concentration for half-maximal inhibition (IC50) fell in the range of 0.01 to 1 µM.

Take `O=C(Nc1cccc(CN2N=C(c3cc(Cl)ccc3O)CSC2=O)c1)c1cccnc1` [Compound B4]: the IC50 is 0.01 to 1 µM.

In the case of `O=C(Nc1cccc(CN2N=C(c3ccccc3O)CSC2=O)c1)c1cccnc1` [Compound B6], the IC50 fell in the range of 0.01 to 1 µM.
